Measured values reported in US20210220379A1, “PERITONEAL SODIUM-GLUCOSE TRANSPORTER (SGLT) INHIBITORS FOR IMPROVEMENT OF PERITONEAL DIALYSIS” (MOR RESEARCH APPLICATIONS LTD., priority 2017, published 2021).

Tests used:
[1] = test system: kidney glucose reabsorption; experiment: Glycosuria by urine stick in healthy CD-1 mice after an SGLT inhibitor; assay type: in vivo; conditions: phlorizin 20 mg/kg single SC injection
Description: (§1) Dapagliflozin (0.1 mg/kg) was given to the mice by oral gavage. Control mice were not given any of the SGLT blockers. Tail blood glucose was tested by glucose test meter immediately before (time 0) and during 2 hours after injection. Glucose levels in the urine were tested by standard urine sticks (Multistix® 10 SG, Siemens Healthcare Diagnostics, Tarrytown, N.Y.).

[2] = test system: peritoneal glucose transport; experiment: Blood glucose in healthy CD-1 mice after intraperitoneal glucose-containing PD fluid; assay type: in vivo; conditions: inhibitor given 15 min before intraperitoneal PD fluid, results not shown
Description: as §1

[3] = test system: peritoneal glucose transport; experiment: Uremic mice: phlorizin-containing peritoneal dialysis fluid (PPDF) intraperitoneally; assay type: in vivo; conditions: uremic CD-1 mice; 2 ml Dianeal 1.5% dextrose with 0.6 μM phlorizin (PPDF) i.p.; compared with separate applications of phlorizin and PDF; P<0.01 vs phlorizin-free PDF
Description: (§2) Renal failure in mice and rats was induced by bilateral ureteral ligation, based on the procedure described, for example, in Kim et al. (2015) (Am J Physiol Renal Physio., 308(2):F131-139) and references cited therein. Briefly, mice were anesthetized with an intraperitoneal injection of a cocktail containing ketamine (200 mg/kg body weight) and xylazine (16 mg/kg body weight). After exposure of both the left and right kidneys through flank incision, right and left ureters were ligated completely near the kidney pelvis using a 5-0 silk tie.
Blood glucose levels were measured by glucometer at indicated time points, and area under the curve (AUC) was calculated for all mice and used to compare the two groups (FIG. 5C; P<0.01).

[4] = test system: peritoneal glucose transport; experiment: Renal failure mice: SC phlorizin followed by intraperitoneal PDF; assay type: in vivo; conditions: renal failure CD-1 mice, phlorizin 20 mg/kg SC
Description: as §2
A standard commercial PD fluid (Dianeal® 1.5% dextrose), diluted 1:4 in saline (comprising 0.375% glucose) was used. Blood glucose levels were measured by glucometer at indicated time points. Area under the curve (AUC) was calculated for all mice and used to compare the two groups. Concentrations of glucose in the peritoneum fluid measured 30 min after administration of PDF are depicted in FIG. 3C.

[5] = test system: glucose absorption from peritoneal fluid; experiment: Uremic rat peritoneal dialysis model: PDF with or without phlorizin; assay type: in vivo, Sprague Dawley (SD) rats; conditions: uremic SD rats, 120 min dwell
Description: as §2
Animal experiments were approved by local Animal Care Committee. Male Sprague Dawley (SD) rats 200-250 gr, we purchased from Envigo RMS (Jerusalem, Israel), allowed to acclimatize for 1 week before the beginning of the experiment. Animals were anesthetized by intramuscular administration of a mixture of ketamine (200 mg/kg body wt) and xylazine (16 mg/kg body wt). Renal failure was induced by bilateral ureteral ligation as described in Materials and Methods. […] After anesthesia temporary catheters were introduced into the peritoneal cavity.
To PDF of both group 100 μl of fluorescein isothiocyanate-dextran was added, average molecular weight 2,000,000 (FITC Dextran −2000, 100 μg/ml, Sigma-Aldrich®, Israel). Dialysate and tail blood samples were obtained during 120 min dwell, every 15 min. Blood glucose level was measured by standard glucometer, dialysate glucose was measured in the chemistry laboratory of the Soroka Medical Center. Dilution of FITC-dextran was detected by florescence of dialysis fluid samples measured with a 96-well fluorimeter (SpectraMax® Paradigm® plate reader, Molecular Devices) at an emission wavelength of 535 nm and an excitation wavelength of 485 nm. Concentrations of unknown samples were calculated from a standard curve by extrapolation in a linear regression model.

[6] = test system: peritoneal glucose transport; experiment: Renal failure mice: SC phlorizin followed by sodium-free PDF; assay type: in vivo; conditions: renal failure CD-1 mice; phlorizin 20 mg/kg SC; sodium free PDF 2 ml, 0.375% glucose
Description: as §2
Dependency of glucose transport on SGLT inhibition during peritoneal dialysis with PDF not containing sodium was assessed.

O=C(CCc1ccc(O)cc1)c1c(O)cc(O)cc1O[C@@H]1O[C@H](CO)[C@@H](O)[C@H](O)[C@H]1O [phlorizin, phloretin-2′-β-D-glucopyranoside]
Duration of glycosuria [1]: more than 2 hours
Glucose levels in urine (glycosuria score, urine stick) ([1]; dapagliflozin 0.1 mg/kg oral gavage): significant glycosuria
Blood glucose levels vs control group [2]: significantly lower
Reduction of blood glucose levels (AUC) [3]: significantly more effective
Blood glucose levels and AUC vs saline control ([4]; 2 ml Dianeal 1.5% dextrose diluted 1:4 (0.375% glucose) i.p., P<0.05): mitigated hyperglycemia
Glucose levels in peritoneum fluid vs control ([4]; 30 minutes from instillation of PDF): significantly elevated
Blood glucose levels vs control group ([5]; 20 ml PDF (1.5% Dianeal diluted 1:4) with phlorizin 100 μg/ml, P<0.01): Significantly lower
FITC-dextran concentration in PDF (dilution) vs control ([5]; PDF with phlorizin 100 μg/ml, P<0.05): significant diluted
PDF (dialysate) glucose level vs control group ([5]; PDF with phlorizin 100 μg/ml, p<0.001): significant declined
Blood glucose levels vs control group [6]: no differences
